Assay results from PubChem BioAssay AID292 (DTP/NCI, 2004).
Inconclusive results and toxic doses are left out. How the source made its calls: active means survival T/C of 150% or more; inactive means T/C below 125% in these data.

Test system: B6C3F1 mice, ip Sarcoma M5076, median survival T/C
Experiment: NCI In Vivo Anticancer Drug Screen. Data for tumor model Sarcoma M5076 (intraperitoneal) in B6C3F1 mice
Conditions: endpoint: median survival time, higher = longer survival
Summary of the method: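 Antitumour effect is judged in tumour-bearing mice by comparing survival after compound dosing against vehicle-only animals, reported as T/C.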

[1] = dose: 37.5 mg/kg/injection, schedule: Q04DX004 (ip), vehicle: saline with Tween-80
[2] = dose: 25.0 mg/kg/injection, schedule: Q04DX004 (ip), vehicle: saline with Tween-80
[3] = dose: 50.0 mg/kg/injection, schedule: Q04DX004 (ip), vehicle: saline with Tween-80
[4] = dose: 100.0 mg/kg/injection, schedule: Q04DX004 (ip), vehicle: saline with Tween-80
[5] = dose: 200.0 mg/kg/injection, schedule: Q04DX004 (ip), vehicle: saline with Tween-80
[6] = dose: 75.0 mg/kg/injection, schedule: Q04DX004 (ip), vehicle: Klucel (hydroxypropylcellulose) (HPC)
[7] = dose: 150.0 mg/kg/injection, schedule: Q04DX004 (ip), vehicle: Klucel (hydroxypropylcellulose) (HPC)
[8] = dose: 50.0 mg/kg/injection, schedule: Q04DX004 (ip), vehicle: Klucel (hydroxypropylcellulose) (HPC)
[9] = dose: 100.0 mg/kg/injection, schedule: Q04DX004 (ip), vehicle: Klucel (hydroxypropylcellulose) (HPC)
[10] = dose: 200.0 mg/kg/injection, schedule: Q04DX004 (ip), vehicle: Klucel (hydroxypropylcellulose) (HPC)
[11] = dose: 400.0 mg/kg/injection, schedule: Q04DX004 (ip), vehicle: Klucel (hydroxypropylcellulose) (HPC)
[12] = dose: 400.0 mg/kg/injection, schedule: Q04DX004 (ip), vehicle: saline with Tween-80

Measured: T/C

CN(C)C(=O)c1cccc(COc2ccc(N3C(N)=NC(N)=NC3(C)C)cc2Cl)c1
inactive: dose: 6.25 mg/kg/injection, schedule: Q04DX004 (ip), vehicle: suspension in saline 90 % of control | dose: 12.5 mg/kg/injection, schedule: Q04DX004 (ip), vehicle: suspension in saline 102 % of control | dose: 25.0 mg/kg/injection, schedule: Q04DX004 (ip), vehicle: suspension in saline 93 % of control | dose: 50.0 mg/kg/injection, schedule: Q04DX004 (ip), vehicle: suspension in saline 97 % of control | dose: 100.0 mg/kg/injection, schedule: Q04DX004 (ip), vehicle: suspension in saline 113 % of control

O=C(CSc1nnc(-c2ccc(Cl)cc2)s1)Nc1nccs1
inactive: dose: 5.0 mg/kg/injection, schedule: Q04DX004 (ip), vehicle: saline with Tween-80 101 % of control | dose: 10.0 mg/kg/injection, schedule: Q04DX004 (ip), vehicle: saline with Tween-80 95 % of control | dose: 20.0 mg/kg/injection, schedule: Q04DX004 (ip), vehicle: saline with Tween-80 93 % of control | [1] 90 % of control | dose: 40.0 mg/kg/injection, schedule: Q04DX004 (ip), vehicle: saline with Tween-80 88 % of control | dose: 80.0 mg/kg/injection, schedule: Q04DX004 (ip), vehicle: saline with Tween-80 88 % of control

O=C(Nc1ccc([N+](=O)[O-])cc1)C1C(=O)C(=O)N(c2ccc([N+](=O)[O-])cc2)C1=O (stereo not drawn)
inactive: dose: 50.0 mg/kg/injection, schedule: Q04DX004 (ip), vehicle: Klucel + Tween-80 96 % of control | dose: 100.0 mg/kg/injection, schedule: Q04DX004 (ip), vehicle: Klucel + Tween-80 104 % of control | dose: 200.0 mg/kg/injection, schedule: Q04DX004 (ip), vehicle: Klucel + Tween-80 92 % of control

CC(O)CCC(=O)c1ccoc1 (stereo not drawn)
inactive: dose: 1.25 mg/kg/injection, schedule: Q03HX012 (ip), vehicle: saline 105 % of control | dose: 2.5 mg/kg/injection, schedule: Q03HX012 (ip), vehicle: saline 95 % of control | dose: 5.0 mg/kg/injection, schedule: Q03HX012 (ip), vehicle: saline 88 % of control | dose: 10.0 mg/kg/injection, schedule: Q03HX012 (ip), vehicle: saline 100 % of control

COC(=O)c1cc(=O)c2c(ccc3oc(=O)ccc32)[nH]1
inactive: dose: 12.5 mg/kg/injection, schedule: Q04DX004 (ip), vehicle: saline with Tween-80 104 % of control | [2] 96 % of control | [3] 92 % of control | [4] 89 % of control | [5] 89 % of control

CC(=O)N1CN=C2Sc3ccccc3N2C1
inactive: dose: 18.75 mg/kg/injection, schedule: Q04DX004 (ip), vehicle: Klucel (hydroxypropylcellulose) (HPC) 102 % of control | dose: 37.5 mg/kg/injection, schedule: Q04DX004 (ip), vehicle: Klucel (hydroxypropylcellulose) (HPC) 111 % of control | [6] 103 % of control | [7] 102 % of control

CCC1OCC(C(Cl)CCl)O1 (stereo not drawn)
inactive: [3] 100 % of control | [4] 97 % of control | [5] 93 % of control

N#CC1C(=O)NC(=S)NC1c1ccc(Cl)cc1 (stereo not drawn)
inactive: [8] 103 % of control | [9] 100 % of control

Nc1c(/C=C/c2cc3cc(C4=NCCN4)ccc3o2)[nH]c2cc(C3=NCCN3)ccc12
inactive: dose: 6.25 mg/kg/injection, schedule: Q04DX004 (ip), vehicle: Klucel (hydroxypropylcellulose) (HPC) 107 % of control | dose: 12.5 mg/kg/injection, schedule: Q04DX004 (ip), vehicle: Klucel (hydroxypropylcellulose) (HPC) 106 % of control | dose: 25.0 mg/kg/injection, schedule: Q04DX004 (ip), vehicle: Klucel (hydroxypropylcellulose) (HPC) 104 % of control

CNC(=S)C#N
inactive: dose: 12.5 mg/kg/injection, schedule: Q04DX004 (ip), vehicle: saline + Tween-80 + alcohol 90 % of control | dose: 50.0 mg/kg/injection, schedule: Q04DX004 (ip), vehicle: saline + Tween-80 + alcohol 89 % of control

COc1cccc(C2NC(=S)NC(=O)C2C#N)c1 (stereo not drawn)
inactive: [8] 99 % of control | [9] 99 % of control | [10] 95 % of control | [11] 97 % of control

Cc1cccc(-n2c(CC#N)n[nH]c2=S)c1
inactive: [3] 115 % of control | [4] 109 % of control | [5] 96 % of control | [12] 106 % of control | dose: 800.0 mg/kg/injection, schedule: Q04DX004 (ip), vehicle: saline with Tween-80 88 % of control

Cn1c([N+](=O)[O-])cnc1CSc1ccc(C#N)cc1
inactive: [8] 96 % of control | [9] 93 % of control | [10] 102 % of control | [11] 94 % of control | dose: 800.0 mg/kg/injection, schedule: Q04DX004 (ip), vehicle: Klucel (hydroxypropylcellulose) (HPC) 91 % of control

Nc1nc2ncn(O)c2c(=O)[nH]1
inactive: dose: 3.12 mg/kg/injection, schedule: Q04DX004 (ip), vehicle: water 100 % of control | dose: 6.25 mg/kg/injection, schedule: Q04DX004 (ip), vehicle: water 100 % of control | dose: 12.5 mg/kg/injection, schedule: Q04DX004 (ip), vehicle: water 97 % of control | dose: 25.0 mg/kg/injection, schedule: Q04DX004 (ip), vehicle: water 93 % of control | dose: 50.0 mg/kg/injection, schedule: Q04DX004 (ip), vehicle: water 101 % of control

CCn1c2ccc(N)cc2c2c3ncc4cccn4c3ccc21
inactive: [1] 101 % of control | dose: 75.0 mg/kg/injection, schedule: Q04DX004 (ip), vehicle: saline with Tween-80 94 % of control | dose: 150.0 mg/kg/injection, schedule: Q04DX004 (ip), vehicle: saline with Tween-80 97 % of control | dose: 300.0 mg/kg/injection, schedule: Q04DX004 (ip), vehicle: saline with Tween-80 89 % of control

O=c1[nH]c2cc3c(cc2n2cccc12)oc1ccccc13
inactive: [3] 90 % of control | [4] 98 % of control | [12] 90 % of control

Cn1cnc([N+](=O)[O-])c1SCC(=O)O
inactive: [6] 92 % of control | [7] 101 % of control | dose: 300.0 mg/kg/injection, schedule: Q04DX004 (ip), vehicle: Klucel (hydroxypropylcellulose) (HPC) 98 % of control | dose: 600.0 mg/kg/injection, schedule: Q04DX004 (ip), vehicle: Klucel (hydroxypropylcellulose) (HPC) 93 % of control | dose: 1200.0 mg/kg/injection, schedule: Q04DX004 (ip), vehicle: Klucel (hydroxypropylcellulose) (HPC) 92 % of control

N[C@@H](C[C@H]1CCC(=O)[C@@H]2O[C@H]12)C(=O)O
inactive: dose: 50.0 mg/kg/injection, schedule: Q04DX004 (ip), vehicle: saline 97 % of control | dose: 100.0 mg/kg/injection, schedule: Q04DX004 (ip), vehicle: saline 106 % of control | dose: 200.0 mg/kg/injection, schedule: Q04DX004 (ip), vehicle: saline 117 % of control | dose: 400.0 mg/kg/injection, schedule: Q04DX004 (ip), vehicle: saline 115 % of control

O=C(Oc1ccccc1)c1cc(O)c(O)c(O)c1
inactive: [2] 97 % of control | [3] 93 % of control | [4] 92 % of control | [5] 88 % of control

Cc1ccc(C)c(NC(=O)C2C(=O)C(=O)N(c3cc(C)ccc3C)C2=O)c1 (stereo not drawn)
inactive: [8] 102 % of control | [9] 100 % of control | [10] 108 % of control | [11] 105 % of control

N#Cc1c(-c2ccccc2)c(-c2ccccc2)nn(CC(=O)O)c1=O
inactive: dose: 50.0 mg/kg/injection, schedule: Q04DX004 (ip), vehicle: distilled water + Tween-80 102 % of control | dose: 100.0 mg/kg/injection, schedule: Q04DX004 (ip), vehicle: distilled water + Tween-80 102 % of control | dose: 200.0 mg/kg/injection, schedule: Q04DX004 (ip), vehicle: distilled water + Tween-80 97 % of control
